Numbering of substitutions follows the chain as printed.
Experiments:
[1] = target: T1, rat P2X4 WT (rWT) (Rattus norvegicus, UniProt P51577); test: Two-Electrode Voltage Clamp recording, rat P2X4 WT in Xenopus oocytes; assay type: cell-based; conditions: for nucleotide-evoked currents: GTP and UTP applied at 3 mM (Fig. S4); for EC50: oocytes held at −70 mV, n = 9, read-out: EC50 (evoked current, dose-response)
T1 construct: rat P2X4 (NP_113782.1; WT and mutants) were transcribed from pGEMHE plasmids; expressed in transfected cells; host or cells: Xenopus laevis oocytes injected with cRNA from pGEMHE
T1 sequence (P51577 1-388): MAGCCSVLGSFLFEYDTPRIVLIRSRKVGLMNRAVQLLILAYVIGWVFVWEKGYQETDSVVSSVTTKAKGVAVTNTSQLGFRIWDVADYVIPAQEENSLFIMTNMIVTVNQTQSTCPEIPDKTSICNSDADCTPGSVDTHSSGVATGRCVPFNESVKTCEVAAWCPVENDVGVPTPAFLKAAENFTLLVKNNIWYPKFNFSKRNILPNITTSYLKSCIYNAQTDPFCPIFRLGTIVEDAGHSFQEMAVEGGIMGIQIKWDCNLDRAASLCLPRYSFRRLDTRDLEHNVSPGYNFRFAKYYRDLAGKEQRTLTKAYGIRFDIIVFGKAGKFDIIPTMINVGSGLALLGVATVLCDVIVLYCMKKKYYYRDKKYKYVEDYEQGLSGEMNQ
Excerpt: (§1) To further investigate the functional roles of the residues involved in the base recognition, T189 and R143, we performed an electrophysiological analysis with the rat P2X4, since its electrophysiological properties have been well established. We first assessed the functional role of T189 in zfP2X4 and introduced mutations at the equivalent residue of the rat P2X4 to create three mutants (^rT186A, ^rT186V and ^rT186S; the superscript “r” means rat P2X4). […] Therefore, we examined the ^rWT and the ^rT186S mutant.
(§2) Figure 4 Current responses of ^rWT, ^rT186S, ^rH140A and ^rH140R evoked by ATP and CTP. (A,B) Representative currents of ^rWT evoked by ATP (1–300 μM) (A) and CTP (10–10,000 μM) (B). (C,D) Representative currents of the ^rT186S mutant evoked by ATP (1–300 μM) (C) and CTP (10–10,000 μM) (D). (E,F) Representative currents of the ^rH140A mutant evoked by ATP (1–300 μM) (E) and CTP (10–10,000 μM) (F). (G,H) Representative currents of the ^rH140R mutant evoked by ATP (1–300 μM) (G) and CTP (10–10,000 μM) (H). (I–K) Concentration-response curves evoked by ATP and CTP in the ^rWT and the ^rT186S mutant (I), in the ^rWT and the ^rH140A mutant (J) and in the ^rWT and the ^rH140R mutant (K). Symbols are defined in the figure, and bars depict means ± SEM (n = 7–9).
(§3) The cRNAs encoding zebrafish P2X4 (NP_705939; WT) and rat P2X4 (NP_113782.1; WT and mutants) were transcribed from pGEMHE plasmids, using a mMessage mMachine® T7 ULTRA kit (Ambion, Huntingdon, Cambridgeshire, UK). Xenopus laevis oocytes were prepared, and RNA (100 ng for zebrafish P2X4, and 20 ng for rat P2X4) was injected into the oocytes. The oocytes were incubated at 18 °C in Barth’s solution, containing 88 mM NaCl, 1 mM KCl, 2.4 mM NaHCO3, 10 mM HEPES, 0.33 mM Ca(NO3)2, 0.41 mM CaCl2, and 0.82 mM MgSO4, pH 7.4, supplemented with 50 μg/ml gentamicin, and were used for recording after 2–3 days. Recording solutions contained 100 mM NaCl, 5 mM HEPES, 2 mM MgCl2, pH 7.3, and nucleoside triphosphates (ATP, CTP, GTP, and UTP), which were freshly prepared each day. Oocytes were held at −70 mV with a bath-clamp amplifier (OC-725C, Warner Co., USA), and macroscopic currents were recorded and analyzed using the pClamp 10 software (Molecular Devices, USA)[33][34]. We measured n = 4 for zebrafish P2X4 data and n = 7–9 for rat P2X4 data.

[2] = target: T2, rat P2X4 rT186S mutant (Rattus norvegicus, UniProt P51577, T186S); test: Two-Electrode Voltage Clamp recording, rat P2X4 T186S mutant in Xenopus oocytes; assay type: cell-based; conditions: for nucleotide-evoked currents: GTP and UTP applied at 3 mM (Fig. S4); for EC50: oocytes held at −70 mV, n = 9, read-out: EC50 (evoked current, dose-response)
T2 construct: rat P2X4 (NP_113782.1; WT and mutants) were transcribed from pGEMHE plasmids; expressed in transfected cells; host or cells: Xenopus laevis oocytes injected with cRNA from pGEMHE
T2 sequence (P51577 1-388 T186S): T1 sequence (P51577 1-388) with T186S
Excerpt: as §1, §2, §3

Row | SMILES | nucleotide-evoked currents [1] | EC50 [1] | nucleotide-evoked currents [2] | EC50 [2]
1 | Nc1ncnc2c1ncn2[C@@H]1O[C@H](COP(=O)(O)OP(=O)(O)OP(=O)(O)O)[C@@H](O)[C@H]1O [ATP, Adenosine 5-triphosphate] | ATP- and CTP-evoked currents were detected | 16.2 ± 5.4 µM | ATP- and CTP-evoked currents were detected | 29.9 ± 3.1 µM
2 | Nc1ccn([C@@H]2O[C@H](COP(=O)(O)OP(=O)(O)OP(=O)(O)O)[C@@H](O)[C@H]2O)c(=O)n1 [CTP] | ATP- and CTP-evoked currents were detected | 564 ± 170 µM | ATP- and CTP-evoked currents were detected | 557 ± 120 µM
3 | Nc1nc2c(ncn2[C@@H]2O[C@H](COP(=O)(O)OP(=O)(O)OP(=O)(O)O)[C@@H](O)[C@H]2O)c(=O)[nH]1 [GTP] | no GTP- and UTP-evoked currents were detected | – | no GTP- and UTP-evoked currents were detected | –
4 | O=c1ccn([C@@H]2O[C@H](COP(=O)(O)OP(=O)(O)OP(=O)(O)O)[C@@H](O)[C@H]2O)c(=O)[nH]1 [UTP] | no GTP- and UTP-evoked currents were detected | – | no GTP- and UTP-evoked currents were detected | –

Reference: paper PMC5362899, “Structural insights into the nucleotide base specificity of P2X receptors” (Scientific Reports, 2017)
